These results are taken from US7169568B2, “Method for screening molecules that exert a neurotrophic effect through activation of neurotrophin receptors” (New York University, priority 2000, dated 2007).

The test system of one assay is TrkB receptors. As to the kind of experiment: Trk receptor phosphorylation in primary E17 hippocampal neurons (immunoprecipitation, anti-phosphotyrosine Western blot). Format: cell-based, rat. The settings on record: two hours. As to the method: FIGS. 4A and 4B show Western blots on adenosine activation of Trk receptors in hippocampal neurons. Primary cultures of E17 hippocampal neurons were prepared as described in the Materials and Methods of Example 1 and treated with (FIG. 4A) CGS 21680 (10 nM) or BDNF (1 ng/ml) for various times and (FIG. 4B) either adenosine (10 μM), CGS 21680 (10 nM), CPA (10 nM) or BDNF (10 ng/ml) for 2 hr. Activation of TrkA receptors was assessed by immunoprecipitation and Western blotting with anti-phosphotyrosine antibody.
(§1) Immunoprotection and Immunoblotting. PC12 cells or PC12-615 cells (Hempstead et al, 1992), were maintained in Dulbecco's Modified Eagle's Medium (DMEM) containing 10% fetal bovine serum (FBS) supplemented with 100 units/ml penicillin, 100 μg/ml streptomycin, and 2 mM glutamine plus 200 μg/ml G418. Cells were placed in low serum medium (1% FBS, 0.5% horse serum) overnight prior to experiments. Cell lysates from PC12, 615 cells, or hippocampal cells were incubated in lysis buffer (1% NP40) for 4 hours to overnight at 4° C. with anti-pan-Trk polyclonal antibody, followed by incubation with protein A-Sepharose beads. Equivalent amounts of protein were analyzed for each condition. The beads' were washed five times with lysis buffer and the immune complexes were boiled in SDS-sample buffer and loaded on sodium dodecyl sulfate-polyacrylamide electrophoresis (SDS-PAGE) gels for immunoblot analysis. The immunoreactive protein bands were detected by ECL reagents based upon enhanced chemiluminescence procedure (Amersham Pharmacia).
Hippocampal Cell Cultures. Dissociated primary cultures of hippocampal neurons from embryonic day 17 (E17) rats were prepared from timed-pregnant Sprague-Dawley rats as described previously (Aibel et al, 1998). Fetuses were removed under sterile conditions and kept in PBS on ice for microscopic dissection of the hippocampus. The meninges were removed and the tissue was placed in Neurobasal media (Gibco BRL). […] Cells were counted and then plated on culture wells coated with 0.01 mg/ml poly-D-lysine overnight. […]
(In western blotting, separated proteins are transferred to a membrane and probed.)

Another assay deals with hippocampal neurons. Put plainly: Cell death assay (LDH release), hippocampal neurons after B27 withdrawal. Format: cell-based, rat. As to the method: (§2) . In FIG. 6A, NGF-differentiated PC12 cells were prepared and then NGF and serum were withdrawn for 48 hours as described in the Materials and Methods section of Example 1. Upon NGF withdrawal, various concentrations of CGS 21680 (CGS) were added to the media. CON =No Addition. […] In FIG. 6B, hippocampal neurons were prepared and B27 was withdrawn for 48 hrs as described in the Materials and Methods section of Example 1. Upon B27 withdrawal, various concentrations of CGS 21680 (CGS) were added to the media. […] All LDH levels were quantitated and % cell death calculated as described in the Materials and Methods section of Example 1. All bars depict mean+SEM from three independent experiments.
Hippocampal Cell Cultures. Dissociated primary cultures of hippocampal neurons from embryonic day 17 (E17) rats were prepared from timed-pregnant Sprague-Dawley rats as described previously (Aibel et al, 1998). Fetuses were removed under sterile conditions and kept in PBS on ice for microscopic dissection of the hippocampus. The meninges were removed and the tissue was placed in Neurobasal media (Gibco BRL). The tissue was briefly minced with fine forceps and then triturated with a fire polished pasteur pipet. Cells were counted and then plated on culture wells coated with 0.01 mg/ml poly-D-lysine overnight. Hippocampal cells were maintained in Neurobasal media, containing B27 supplement and L-glutamine (0.5 mM). Experiments were conducted 7–10 days after plating.
Hippocampal neurons were maintained in Neurobasal media containing B27 supplement and 0.5 mM L-glutamine for 10 days. B27 was then removed, and adenosine agonists or BDNF (100 ng/ml) was added to the media. MK-801 (1 μM) was added to all conditions, to decrease the contribution of NMDA-mediated cell death. After 48 hrs, cell death was assessed by measurement of LDH released into media.
(LDH leaks from cells whose membrane has failed.)

The subject of assay [1] is NGF-differentiated PC12 cells. As to the kind of experiment: Cell death assay (LDH release), NGF-differentiated PC12 cells after NGF and serum withdrawal. In kind it is cell-based. The note with it: one-time treatment, 48 hours in the absence of NGF, LDH release. As to the method:
as §2, with “FIGS. 6A and 6B show graphs on the trophic effects of adenosine in PC12 and hippocampal cells deprived of neurotrophins. In” for “. In”
Cell Death Assay. PC12 cells were differentiated in Dulbecco's modified Eagle's medium (DMEM), supplemented with 0.33% fetal bovine serum, 0.67% heat-inactivated horse serum, 2 mM L-glutamine and NGF (50 ng/ml) for 7 days. Serum and NGF were then removed, and adenosine agonists or growth factors added to the media. After 48 hrs, cell death was quantified by measuring lactate dehydrogenase (LDH) released from injured cells into the media using the Cytox 96 Cytotoxicity Assay Kit (Promega, Madison, Wis.). LDH values were normalized by subtracting the LDH released by cells maintained in NGF (50 ng/ml) and scaling to a full kill (=100%) reference induced by 5 min treatment with 1% Triton, an exposure that consistently killed all PC12 cells.

The test system of the next assay is MAP kinase. As to the kind of experiment: MAP kinase activation in PC12 cells (anti-phospho MAP kinase immunoblot). In kind it is cell-based. The settings on record: PC12 cells, adenosine 10 μM, within 10 minutes. As for the experimental part:
as §1, with “PC12 cells (615) were treated with adenosine (10 μM) for various times in the presence or absence of […] (100 nM) or LY294002 (10 μM). The cells were subsequently harvested in lysis buffer; lysates and immunoprecipitated samples were subsequently immunoblotted with anti-phospho MAP kinase, anti-phospho Akt, and anti-phosphotyrosine. Reprobing with anti-MAP kinase and anti-pan-Trk antibodies was carried out to ensure equal protein loading. Immunoprotection” for “Immunoprotection”, “The beads' were washed five times with lysis buffer and the immune complexes were boiled in SDS-sample buffer and loaded on sodium dodecyl sulfate-polyacrylamide electrophoresis (SDS-PAGE) gels for immunoblot analysis.” left out

Each structure is given as a SMILES string.

For the compound `CCNC(=O)[C@H]1O[C@@H](n2cnc3c(N)nc(NCCc4ccc(CCC(=O)O)cc4)nc32)[C@H](O)[C@@H]1O` [CGS 21680, 2-[(4-(2-carboxyethyl)phenylethyl)]aminoadenosine-5′-N-ethylcarboxamide], the “Phosphorylation of TrkB receptors” value in the assay on TrkB receptors (10 nM) was “gave rise to phosphorylated TrkB receptors”. For the same compound, the Cells rescued result with hippocampal neurons (48 hrs after B27 withdrawal, absence of BDNF, LDH release) is given as “greater than 60%”; in assay [1] it was around 50%. The “Dose dependence of survival action” value in the assay on hippocampal neurons (various concentrations upon B27 withdrawal) is on record as “dose-dependent”.
As to `Nc1ncnc2c1ncn2[C@@H]1O[C@H](CO)[C@@H](O)[C@H]1O` [adenosine], the “Phosphorylated MAP kinase” value in the assay on MAP kinase is recorded as “marked increased in phosphorylated MAP kinase”. Also, in the assay with TrkB receptors (10 μM), the “Phosphorylation of TrkB receptors” value is “gave rise to phosphorylated TrkB receptors”.
